# The source made the active and inactive calls. The calls are words filed in the database; no cut-off is given here.
# Target: Disks large homolog 4 (Homo sapiens) (UniProt P78352)
# Test: Binding affinity to recombinant 15N-labelled PSD95-PDZ1 domain expressed in Escherichia coli BL21 assessed as chemical shift perturbation by NMR spectra analysis
# Sequence of Disks large homolog 4 (Homo sapiens) (P78352 whole entry, looked up, the tested form may be a part): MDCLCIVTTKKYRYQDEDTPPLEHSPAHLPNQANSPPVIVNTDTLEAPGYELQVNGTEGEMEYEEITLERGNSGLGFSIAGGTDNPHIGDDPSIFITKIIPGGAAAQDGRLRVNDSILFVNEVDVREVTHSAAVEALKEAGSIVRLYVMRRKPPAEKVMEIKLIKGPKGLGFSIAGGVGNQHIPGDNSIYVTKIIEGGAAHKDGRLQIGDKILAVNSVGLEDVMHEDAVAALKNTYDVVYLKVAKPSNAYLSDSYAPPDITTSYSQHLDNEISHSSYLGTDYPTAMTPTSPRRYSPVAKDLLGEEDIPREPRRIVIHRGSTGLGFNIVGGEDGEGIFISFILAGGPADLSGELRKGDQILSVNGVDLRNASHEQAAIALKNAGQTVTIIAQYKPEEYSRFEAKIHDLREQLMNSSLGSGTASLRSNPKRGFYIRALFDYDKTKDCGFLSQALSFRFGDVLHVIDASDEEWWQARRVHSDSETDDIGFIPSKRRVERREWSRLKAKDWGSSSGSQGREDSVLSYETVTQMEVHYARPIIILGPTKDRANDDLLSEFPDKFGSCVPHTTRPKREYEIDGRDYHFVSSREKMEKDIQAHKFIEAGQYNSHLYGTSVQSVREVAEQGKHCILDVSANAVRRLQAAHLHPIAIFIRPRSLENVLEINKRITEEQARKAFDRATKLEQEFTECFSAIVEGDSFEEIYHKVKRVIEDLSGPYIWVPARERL
row,Activity,Structure (SMILES)
1,Active,Cc1cc2c(C)c(C(=O)O)[nH]c2cc1C(=O)O
2,inactive,Cc1cc2c(C)c(C(=O)O)n(C)c2cc1C(=O)O
3,Active,Cc1cc2[nH]c(C(=O)O)c(C)c2cc1C(=O)O
4,inactive,Cc1cc2cc(C(=O)O)[nH]c2cc1C(=O)O
5,Active,Cc1c(C(=O)O)[nH]c2ccc(C(=O)O)cc12

# More lines, now with the values behind:
row,Structure (SMILES),Activity
1,COC(=O)c1cc2c(C)c(C(=O)O)[nH]c2cc1C,inactive
2,COC(=O)c1cc2[nH]c(C(=O)O)c(C)c2cc1C,inactive
3,CCOC(=O)c1ccc2[nH]c(C(=O)O)c(C)c2c1,inactive
